The target in assay [1] is T1, human amylin receptor (calcitonin receptor co-expressed with receptor activity modifying protein, RAMP3) (hAMYR3) (Homo sapiens, UniProt O60896+P30988).
T1 construct: expressed in transfected cells
T1 sequence (P30988 25-474): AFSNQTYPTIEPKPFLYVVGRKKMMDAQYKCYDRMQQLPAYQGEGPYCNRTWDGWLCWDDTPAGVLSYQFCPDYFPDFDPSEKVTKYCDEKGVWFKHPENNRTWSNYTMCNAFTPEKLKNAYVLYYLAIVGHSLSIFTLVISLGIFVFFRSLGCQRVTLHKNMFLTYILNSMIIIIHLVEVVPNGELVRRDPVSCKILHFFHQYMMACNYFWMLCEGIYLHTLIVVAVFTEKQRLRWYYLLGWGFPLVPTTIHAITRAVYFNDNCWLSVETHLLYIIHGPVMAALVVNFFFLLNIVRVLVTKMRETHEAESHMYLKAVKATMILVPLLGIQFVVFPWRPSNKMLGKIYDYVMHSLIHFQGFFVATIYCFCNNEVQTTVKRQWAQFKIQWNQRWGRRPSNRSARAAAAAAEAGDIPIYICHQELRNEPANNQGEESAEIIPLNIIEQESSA
T1 sequence (O60896 24-148 partner): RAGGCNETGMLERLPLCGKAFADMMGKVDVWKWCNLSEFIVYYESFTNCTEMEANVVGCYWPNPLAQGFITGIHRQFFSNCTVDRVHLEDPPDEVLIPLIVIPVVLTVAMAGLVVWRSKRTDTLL
As to the kind of experiment: cAMP production in 1321N1 cells with stable recombinant expression of human amylin receptor (hAMYR3). The note with it: for Ratio (selectivity hAMYR vs hCTR, ratio of EC50 values at the two receptors): EC50 hCTR / EC50 hAMYR3; for EC50: cAMP, 1321N1 cells, assay buffer with 0.1% BSA, read-out: EC50 (pM) hAMYR3. Type of assay: cell-based. The gist of the method: (§1)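 Thawed cells in HBSS/0.1% BSA/25 mM HEPES pH 7.4 with 0.5 mM IBMX were incubated with peptides 30 min at room temperature; cAMP read by HTRF. EC50 from 4-parameter fit of % activation relative to maximal amylin or calcitonin effect.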
(In general: cAMP levels reflect the balance of adenylyl cyclase and phosphodiesterase activity.)

Assay [2] concerns the target T2, human calcitonin receptor (hCTR) (Homo sapiens, UniProt P30988).
T2 construct: expressed in transfected cells
T2 sequence (P30988 25-474): T1 sequence (P30988 25-474)
The experiment in a line: cAMP production in 1321N1 cells with stable recombinant expression of human calcitonin receptor (hCTR). Type of assay: cell-based. The note with it: cAMP, 1321N1 cells, assay buffer with 0.1% BSA; read-out: EC50 (pM) hCTR. Put shortly:
as §1

Numbered stars: 1 amine (or outer) side, 2 acyl side, 3 side chain; on linkers, the order of the positions; unused ones are H or OH. Bridge positions count the residues as written; N and C are the ends. Square brackets hold non-standard residues; d marks the D form. Side chains are listed from the residue outwards. Peptide text beside a SMILES is read from it. * marks the point of attachment. C18 diacid = O=C(O)CCCCCCCCCCCCCCCCC(=O)*; γGlu = O=C(O)[C@H](CCC(=O)[*:2])N[*:1]; Dab = NCC[C@H](N)C(=O)O; Aib = CC(C)(N)C(=O)O

For the compound `CC[C@H](C)[C@H](NC(=O)[C@@H]1CCCN1C(=O)CNC(=O)[C@H](Cc1ccccc1)NC(=O)[C@H](CC(N)=O)NC(=O)CNC(=O)[C@H](CO)NC(=O)[C@H](CO)NC(=O)[C@H](Cc1c[nH]cn1)NC(=O)C(C)(C)NC(=O)[C@H](CC(C)C)NC(=O)[C@H](Cc1ccccc1)NC(=O)[C@H](CC(N)=O)NC(=O)[C@H](C)NC(=O)[C@H](CC(C)C)NC(=O)[C@H](CCCNC(=N)N)NC(=O)[C@H](CCC(N)=O)NC(=O)[C@@H](NC(=O)[C@H](C)NC(=O)[C@@H]1CSSC[C@H](NC(=O)[C@H](CCCCN)NC(=O)[C@@H](N)CCCCNC(=O)CC[C@H](NC(=O)CCCCCCCCCCCCCCCCC(=O)O)C(=O)O)C(=O)N[C@@H](CC(N)=O)C(=O)N[C@@H]([C@@H](C)O)C(=O)N[C@@H](C)C(=O)N[C@@H]([C@@H](C)O)C(=O)N1)[C@@H](C)O)C(=O)N[C@@H](CC(C)C)C(=O)N1CCC[C@H]1C(=O)N1CCC[C@H]1C(=O)N[C@H](C(=O)N[C@@H](CC(N)=O)C(=O)N[C@H](C(=O)NCC(=O)N[C@@H](CO)C(=O)N[C@@H](CC(N)=O)C(=O)N[C@H](C(=O)N[C@@H](Cc1ccc(O)cc1)C(N)=O)[C@@H](C)O)C(C)C)[C@@H](C)O` [Peptide 154] (H-K([γGlu-C18 diacid])KCNTATCATQRLANFL[Aib]HSSGNFGPILPPTNVGSNTY-NH2; disulfide 3-8; N-terminus assumed), in assay [1], the “Ratio (selectivity hAMYR vs hCTR, ratio of EC50 values at the two receptors)” value worked out at 2.7. In addition, the EC50 in assay [1] came out at 574 pM; in assay [2], 1540 pM.
Regarding `CC[C@H](C)[C@H](NC(=O)[C@@H]1CCCN1C(=O)CNC(=O)[C@H](Cc1ccccc1)NC(=O)[C@H](CC(N)=O)NC(=O)[C@H](CC(N)=O)NC(=O)[C@H](CO)NC(=O)[C@H](CO)NC(=O)[C@H](Cc1c[nH]cn1)NC(=O)C(C)(C)NC(=O)[C@H](CC(C)C)NC(=O)[C@H](Cc1ccccc1)NC(=O)[C@H](CC(N)=O)NC(=O)[C@H](C)NC(=O)[C@H](CC(C)C)NC(=O)[C@H](CCCNC(=N)N)NC(=O)[C@H](CCC(N)=O)NC(=O)[C@@H](NC(=O)[C@H](C)NC(=O)[C@@H]1CSSC[C@H](NC(=O)[C@H](CCCCN)NC(=O)[C@@H](N)CCCCNC(=O)CC[C@H](NC(=O)CCCCCCCCCCCCCCCCC(=O)O)C(=O)O)C(=O)N[C@@H](CC(N)=O)C(=O)N[C@@H]([C@@H](C)O)C(=O)N[C@@H](C)C(=O)N[C@@H]([C@@H](C)O)C(=O)N1)[C@@H](C)O)C(=O)N[C@@H](CC(C)C)C(=O)N1CCC[C@H]1C(=O)N1CCC[C@H]1C(=O)N[C@H](C(=O)N1CCC[C@H]1C(=O)N[C@H](C(=O)NCC(=O)N[C@@H](CO)C(=O)N[C@@H](CC(N)=O)C(=O)N[C@H](C(=O)N[C@@H](Cc1ccc(O)cc1)C(N)=O)[C@@H](C)O)C(C)C)[C@@H](C)O` [Peptide 134] (H-K([γGlu-C18 diacid])KCNTATCATQRLANFL[Aib]HSSNNFGPILPPTPVGSNTY-NH2; disulfide 3-8; N-terminus assumed), in assay [1], the “Ratio (selectivity hAMYR vs hCTR, ratio of EC50 values at the two receptors)” value came to 7.9 and the EC50 came out at 281 pM. Moreover, in assay [2], the EC50 amounted to 2220 pM.
With `CC[C@H](C)[C@H](NC(=O)[C@@H]1CCCN1C(=O)CNC(=O)[C@H](Cc1ccccc1)NC(=O)[C@H](Cc1c[nH]cn1)NC(=O)[C@H](CC(N)=O)NC(=O)[C@H](CO)NC(=O)[C@H](CO)NC(=O)[C@H](Cc1c[nH]cn1)NC(=O)[C@@H](NC(=O)[C@H](CC(C)C)NC(=O)[C@H](Cc1ccccc1)NC(=O)[C@H](CC(N)=O)NC(=O)[C@H](C)NC(=O)[C@H](CC(C)C)NC(=O)[C@H](CCCNC(=N)N)NC(=O)[C@H](CCC(N)=O)NC(=O)[C@@H](NC(=O)[C@H](C)NC(=O)[C@@H]1CSSC[C@H](NC(=O)[C@H](CCCCN)NC(=O)[C@@H](N)CCCCNC(=O)CC[C@H](NC(=O)CCCCCCCCCCCCCCCCC(=O)O)C(=O)O)C(=O)N[C@@H](CC(N)=O)C(=O)N[C@@H]([C@@H](C)O)C(=O)N[C@@H](C)C(=O)N[C@@H]([C@@H](C)O)C(=O)N1)[C@@H](C)O)C(C)C)C(=O)N[C@@H](CC(C)C)C(=O)N1CCC[C@H]1C(=O)N1CCC[C@H]1C(=O)N[C@H](C(=O)N[C@@H](CC(N)=O)C(=O)N[C@H](C(=O)NCC(=O)N[C@@H](CO)C(=O)N[C@@H](CCC(=O)O)C(=O)N[C@H](C(=O)N[C@@H](Cc1ccc(O)cc1)C(N)=O)[C@@H](C)O)C(C)C)[C@@H](C)O` [Peptide 111] (H-K([γGlu-C18 diacid])KCNTATCATQRLANFLVHSSNHFGPILPPTNVGSETY-NH2; disulfide 3-8; N-terminus assumed), in assay [1], the “Ratio (selectivity hAMYR vs hCTR, ratio of EC50 values at the two receptors)” value amounted to 5 and the EC50 was 403 pM. In assay [2], the EC50 is 1880 pM.
Turning to `CC[C@H](C)[C@H](NC(=O)[C@@H]1CCCN1C(=O)CNC(=O)[C@H](Cc1ccccc1)NC(=O)[C@H](CC(N)=O)NC(=O)[C@H](CCN)NC(=O)[C@H](CO)NC(=O)[C@H](CO)NC(=O)[C@H](Cc1c[nH]cn1)NC(=O)C(C)(C)NC(=O)[C@H](CC(C)C)NC(=O)[C@H](Cc1ccccc1)NC(=O)[C@H](CC(N)=O)NC(=O)[C@H](C)NC(=O)[C@H](CC(C)C)NC(=O)[C@H](CCCNC(=N)N)NC(=O)[C@H](CCC(N)=O)NC(=O)[C@@H](NC(=O)[C@H](C)NC(=O)[C@@H]1CSSC[C@H](NC(=O)[C@H](CCCCN)NC(=O)[C@@H](N)CCCCNC(=O)CC[C@H](NC(=O)CCCCCCCCCCCCCCCCC(=O)O)C(=O)O)C(=O)N[C@@H](CC(N)=O)C(=O)N[C@@H]([C@@H](C)O)C(=O)N[C@@H](C)C(=O)N[C@@H]([C@@H](C)O)C(=O)N1)[C@@H](C)O)C(=O)N[C@@H](CC(C)C)C(=O)N1CCC[C@H]1C(=O)N1CCC[C@H]1C(=O)N[C@H](C(=O)N[C@@H](CCC(=O)O)C(=O)N[C@H](C(=O)NCC(=O)N[C@@H](CO)C(=O)N[C@@H](CC(N)=O)C(=O)N[C@H](C(=O)N[C@@H](Cc1ccc(O)cc1)C(N)=O)[C@@H](C)O)C(C)C)[C@@H](C)O` [Peptide 30, K(γE-C18diacid)K[CNTATC]ATQRLANFL(Aib)HSS(Dab)NFGPILPPTEVGSNTY-amide] (H-K([γGlu-C18 diacid])KCNTATCATQRLANFL[Aib]HSS[Dab]NFGPILPPTEVGSNTY-NH2; disulfide 3-8; N-terminus assumed), in assay [1], the “Ratio (selectivity hAMYR vs hCTR, ratio of EC50 values at the two receptors)” value was 12 and the EC50 is 873 pM. The EC50 in assay [2] was determined as 10500 pM.
The like results for `CC[C@H](C)[C@H](NC(=O)[C@@H]1CCCN1C(=O)CNC(=O)[C@H](Cc1ccccc1)NC(=O)C(C)(C)NC(=O)[C@H](CC(N)=O)NC(=O)[C@H](CO)NC(=O)[C@H](CO)NC(=O)[C@H](Cc1c[nH]cn1)NC(=O)[C@@H](NC(=O)[C@H](CC(C)C)NC(=O)[C@H](Cc1ccccc1)NC(=O)[C@H](CC(N)=O)NC(=O)[C@H](C)NC(=O)[C@H](CC(C)C)NC(=O)[C@H](CCCNC(=N)N)NC(=O)[C@H](CCC(N)=O)NC(=O)[C@@H](NC(=O)[C@H](C)NC(=O)[C@@H]1CSSC[C@H](NC(=O)[C@H](CCCCN)NC(=O)[C@@H](N)CCCCNC(=O)CC[C@H](NC(=O)CCCCCCCCCCCCCCCCC(=O)O)C(=O)O)C(=O)N[C@@H](CC(N)=O)C(=O)N[C@@H]([C@@H](C)O)C(=O)N[C@@H](C)C(=O)N[C@@H]([C@@H](C)O)C(=O)N1)[C@@H](C)O)C(C)C)C(=O)N[C@@H](CC(C)C)C(=O)N1CCC[C@H]1C(=O)N1CCC[C@H]1C(=O)N[C@H](C(=O)N[C@@H](CC(N)=O)C(=O)N[C@H](C(=O)NCC(=O)N[C@@H](CO)C(=O)N[C@@H](CC(N)=O)C(=O)N[C@H](C(=O)N[C@@H](Cc1ccc(O)cc1)C(N)=O)[C@@H](C)O)C(C)C)[C@@H](C)O` [Peptide 109, K(γE-C18diacid)K[CNTATC]ATQRLANFLVHSSN(Aib)FGPILPPTNVGSNTY-amide] (H-K([γGlu-C18 diacid])KCNTATCATQRLANFLVHSSN[Aib]FGPILPPTNVGSNTY-NH2; disulfide 3-8; N-terminus assumed) were, in that order, 2, 82 pM and 176 pM.

By EC50 is commonly meant the concentration needed to bring the measured effect to its halfway point.

The values above are taken from patent publication US20240067693A1, “POLYPEPTIDES AND USES THEREOF” (MEDIMMUNE LIMITED, priority 2020, published 2024).
